Experimental findings from PMC10249896, “AI-Assisted chemical probe discovery for the understudied Calcium-Calmodulin Dependent Kinase, PNCK” (PLOS Computational Biology, 2023) are described below.

One may read the inhibition as the drop in the measured response relative to a control, in per cent. By pIC50 is commonly meant the negative decadic logarithm of the IC50, by convention in mol/L. Read a high pIC50 as a small IC50.

pIC50: −log10 of the molar value. Where “and” joins values, the source holds several entries; their conditions need not be identical. Identical values can stand only once.

The series has as its target T1, PNCK Nano-luciferase fusion (Homo sapiens, UniProt Q6P2M8).
T1 construct: host or cells: HEK293
Description: NanoBRET Target Engagement Intracellular Kinase Assay, cell-based PNCK binding screen and dose response in HEK293 cells. The settings on record: for inhibition at 1 µM: compound 1uM, read-out: Avg. Normalized % Inhibition, 1uM, Nanobret; for inhibition at 1 µM / inhibition at 10 µM / pIC50: HEK293; for inhibition at 1 µM / inhibition at 10 µM: K10 tracer 1uM, normalized to staurosporine and DMSO; for inhibition at 10 µM: compound 10uM, read-out: Avg. Normalized % Inhibition, 10uM, Nanobret; for pIC50: 8-point concentration-response; for cell permeability: stated on testing in NanoBRET assay; for NanoBRET binding, result in words: cell-based screen / comparison with parent hit. How it is done:
The NanoBRET Target Engagement Intracellular Kinase Assay (Promega N2520) is a cell-based binding screen which reads loss of BRET signal as a result of target binding. A PNCK Nano-luciferase fusion vector plasmid was generated custom by Promega. The K-10 tracer was used for the assay, as determined by Promega. The plasmid was maxiprepped by Genewiz for use in all future assays. HEK293 cells were seeded in a T175 flask in DMEM with 10% FBS. The following day, cells were counted to 10,000, resuspended in assay media (Optimem with no phenol red, 1% FBS). Plasmid and transfection reagent (Fugene HD, Promega E2311) were added to the mixture and cells were seeded in a white 96-well plate. After 20–24 hours, media was changed, and the assay proceeded according to protocol. K10 tracer was added at the recommended concentration of 1uM while compounds were initially screened at both 10uM and 1uM. Cells incubated with compound at 37 degrees Celsius for a maximum of 2 hours before the plate was read using Clariostar Plus. Data was normalized to Staurosporine and DMSO controls. For compounds selected for further analysis, dose response curves were generated using the same testing protocol but at 8 different concentrations: 24uM, 12uM, 6uM, 3uM, 1.5uM, .75uM 0.375uM and 0.1875uM. UM195 was tested with concentrations from 12uM to 0.09375. Similarly, compounds from the analog by catalog analysis were tested at concentrations from 24uM to 0.1875uM.
Data analysis of ADP Kinase Glo results were carried out per the manufacturer’s instructions. Results were represented as a percent decrease in activity. Data was normalized to staurosporine (positive control) as 100% decrease and DMSO (negative control) as a 0% decrease. Data for NanoBRET was analyzed by dividing the acceptor by the donor emission and […] to obtain raw millibret units (mBU). Background was subtracted using control emission averages. Data was normalized to positive and negative controls of staurosporine and DMSO. Concentration-response curves were plotted in GraphPad Prism 8 and IC50s were extrapolated using non-linear fit with concentrations transformed to logarithmic scale. Baseline was held constant and represented the average mBU of staurosporine controls while the top was constrained to represent the average mBU of DMSO controls. Error bars on dose-response curves represent standard deviations.
A general note: In BRET a luciferase serves as donor, and the signal depends on an acceptor being close.

T1 sequence (Q6P2M8 whole entry, the tested form may be a part): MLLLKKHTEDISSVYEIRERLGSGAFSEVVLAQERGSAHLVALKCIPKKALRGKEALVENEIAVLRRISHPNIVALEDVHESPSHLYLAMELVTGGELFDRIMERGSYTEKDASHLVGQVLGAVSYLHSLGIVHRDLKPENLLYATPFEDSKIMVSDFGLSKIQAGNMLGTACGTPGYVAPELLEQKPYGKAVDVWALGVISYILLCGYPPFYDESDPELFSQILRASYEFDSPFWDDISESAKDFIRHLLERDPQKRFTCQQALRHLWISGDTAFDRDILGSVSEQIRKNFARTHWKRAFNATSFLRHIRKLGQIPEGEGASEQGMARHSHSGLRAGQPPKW

Consider `Cc1noc2ncnc(N3CCC(n4c(C)nc5ccccc54)CC3)c12` [UM_215], for which the inhibition at 1 µM came out at 0% and the inhibition at 10 µM amounted to 19.4%.
On to `CCOCCn1c(CN2CCN(CC)CC2)nc2c1c(O)nc(=O)n2C` [UM_227], for which the inhibition at 1 µM came to 22.4% and the inhibition at 10 µM was 49.4%.
`O=C(COc1ccc2c3c(c(=O)oc2c1)CCCCC3)N1CCc2ccccc21` [UM_213, 3-[2-(2,3-dihydro-1H-indol-1-yl)-2-oxoethoxy]-6H,7H,8H,9H,10H,11H-cyclohepta [c]chromen-6-one]: the pIC50 was 5.02, the inhibition at 1 µM came to 56.7% and the inhibition at 10 µM came out at 91.5%. The “Dose-Response Curve Data (NanoBRET signal, replicates)” value (shortened to “Dose-Response Curve Data”) (Concentration 1.20E-05 M) is 7.35 and 7.43 (2×). The “Dose-Response Curve Data” value (Concentration 1.50E-06 M) is 8.59 and 8.87 and 8.44. For the same molecule, the “Dose-Response Curve Data” value (Concentration 1.88E-07 M) is 8.66 and 8.93 and 8.52. Besides, the “Dose-Response Curve Data” value (Concentration 2.40E-05 M) is 6.31 and 6.47 and 6.34. The “Dose-Response Curve Data” value (Concentration 3.00E-06 M) was 8.12 and 8.73 and 8.41. The “Dose-Response Curve Data” value (Concentration 3.75E-07 M) was 8.92 and 8.51 and 8.71. Further, for the setting “Concentration 6.00E-06 M”, the “Dose-Response Curve Data” value was 8.04 and 8.33 and 8.32. Further, the “Dose-Response Curve Data” value (Concentration 7.50E-07 M) was 8.68 and 8.62 and 8.88.
As to `Cc1cc(C)n2nc(SCc3nc4ccccc4s3)nc2n1` [UM_218], the inhibition at 1 µM was 16.7% and the inhibition at 10 µM is 61.2%.
On the same counts, the results for `COc1cccc(-c2nc3c(c(=O)[nH]2)Cc2cc(Br)ccc2O3)c1O` [UM_229] are 27.5% and 54%.
On the same counts, the results for `O=C(O)c1ccc(-c2nc(O)c3c4c(sc3n2)CCCC4)cc1` [UM_233] are 7.37% and 14.2%.
As to `Cc1cc(C)n2nc(SCc3cc(=O)n4cc(Br)ccc4n3)nc2n1` [UM_201], the inhibition at 1 µM was determined as 3.26% and the inhibition at 10 µM is 30.8%.
Take `Cc1nc2c(c(=O)[nH]1)CCN(Cc1cc3ccccc3n(C)c1=O)CC2` [UM_231]: the inhibition at 1 µM is 25.9% and the inhibition at 10 µM was determined as 46.3%.
With `Nn1c(SCc2ccc(Br)cc2)nnc(CCC(=O)O)c1=O` [UM_192], the inhibition at 1 µM is 0%, the inhibition at 10 µM came to 0% and the cell permeability entry is listed as “not cell permeable”.
With `CC1CCc2c(sc(NC(=O)c3cccs3)c2C(N)=O)C1` (stereo not drawn) [UM_255], the inhibition at 1 µM is 0% and the inhibition at 10 µM amounted to 1.24%.
On to `Cc1nc(N2CCC[C@H]3C(=O)NC[C@H]32)c2c(C)c(C)sc2n1` [UM_194], for which the inhibition at 1 µM stood at 1.43% and the inhibition at 10 µM is 27.6%.
`O=c1[nH]c2ccccc2n2c(SCCCn3c(=O)[nH]c4ccccc43)nnc12` [UM_273]: the inhibition at 1 µM was found to be 29% and the inhibition at 10 µM stood at 45.5%.
With `O=c1[nH]c(-c2ccc(-n3cccn3)nc2)nc2sc3ccccc3c12` [UM_208], the inhibition at 1 µM worked out at 5.94% and the inhibition at 10 µM was found to be 87.8%.
With `Cc1ccc2[nH]c(SCc3cc(=O)n4ccccc4n3)nc2c1` [UM_197], the inhibition at 1 µM turned out to be 1.23% and the inhibition at 10 µM turned out to be 27%.
Consider `O=c1oc2cc(OC3OC(CO)C(O)C(O)C3O)c(Cl)cc2c2c1CCCC2` (stereo not drawn) [UM_226], for which the inhibition at 1 µM came out at 21.8% and the inhibition at 10 µM was 51.6%.
On to `Clc1nc(CN2CCCCC2)nc2sc3c(c12)CCC3` [UM_220], for which the inhibition at 1 µM was 1.68% and the inhibition at 10 µM is 27.1%.
As for `O=C(O)c1cccnc1SCCCN1C(=O)c2cccc3cccc(c23)C1=O` [UM_216], the inhibition at 1 µM was determined as 2.34% and the inhibition at 10 µM turned out to be 25.4%.
On the same counts, the results for `O=C1CCCc2c1cnc1nc(N3CCCCC3)nc(O)c21` [UM_232] are 1.49% and 10.9%.
On to `CCn1c(SCCCn2c(=O)[nH]c3ccccc32)n[nH]c1=O` [UM_274], for which the pIC50 was 4.99, the inhibition at 1 µM was 34.2% and the inhibition at 10 µM was determined as 71.8%.
Take `O=c1[nH]c(CSc2ccc3ccccc3n2)nc2ccccc12` [UM_281]: the inhibition at 1 µM stood at 26.6% and the inhibition at 10 µM came to 54.5%.
For `O=C(CSc1ncccn1)c1ccc(O)c(O)c1` [UM_243], the cell permeability result is given as “not cell permeable”.
Consider `NC(=O)Nc1cccc(C(=O)Nc2cc3c(cc2Br)OCCO3)c1` [UM_222], for which the inhibition at 1 µM came out at 28% and the inhibition at 10 µM came out at 71.1%.
With `Cc1cc(C)n2nc(SCc3nc(-c4ccccc4)no3)nc2n1` [UM_217], the inhibition at 1 µM turned out to be 10.5% and the inhibition at 10 µM came to 49.3%.
For `NC(=O)Cn1cnc2cc(-c3ccc(Cl)cc3)sc2c1=O` [UM_219] the same measures were 0.98% and 31.1%.
For the molecule `O=C(O)c1cccc(S(=O)(=O)Nc2nc3ccc(Cl)cc3s2)c1` [UM_203], the inhibition at 1 µM came to 5.12% and the inhibition at 10 µM worked out at 22.7%.
Turning to `O=C1CCCN1CC(O)COc1ccc2c3c(c(=O)oc2c1)CCCCC3` (stereo not drawn) [UM_257], the inhibition at 1 µM is 15.2% and the inhibition at 10 µM came to 48.6%.
Regarding `c1ccc2c(c1)ccn2CCc1nc(-c2cnccn2)no1` [UM_202], the inhibition at 1 µM stood at 0% and the inhibition at 10 µM amounted to 21.5%.
Regarding `Cc1nnc(SCCCn2c(=O)[nH]c3ccccc32)n1N` [UM_275], the inhibition at 1 µM came out at 12% and the inhibition at 10 µM turned out to be 52.2%.
Turning to `N#Cc1cnc(Sc2nnc(-c3ccccc3)o2)cn1` [UM_253], the inhibition at 1 µM is 4.54% and the inhibition at 10 µM was determined as 55.6%.
For `CN(CC(=O)NC(C)(C)C)Cn1nc2c3c(cccc31)C(=O)c1ccccc1-2` [UM_224] the same measures were 18% and 33.3%.
Take `N#Cc1cnc(Sc2nnc(C3CCCCC3)o2)cn1` [UM_256]: the inhibition at 1 µM was found to be 2.86% and the inhibition at 10 µM was 51%.
As to `Cc1ccnc2nc(C(=O)OCC(=O)c3ccc(Cl)cc3Cl)nn12` [UM_198], the inhibition at 1 µM is 2.17% and the inhibition at 10 µM turned out to be 22.7%.
`COc1ccc2[nH]c(SCc3cc(=O)n4c(C)cccc4n3)nc2c1` [UM_196]: the inhibition at 1 µM turned out to be 3.82% and the inhibition at 10 µM stood at 30.5%.
With `CC1(C)CCc2c(sc(NC(=O)c3ccc(Cl)s3)c2C(N)=O)C1` [UM_260], the inhibition at 1 µM worked out at 4.8% and the inhibition at 10 µM was 31.2%.
For the molecule `O=c1[nH]c(CSc2ncccn2)nc2ccc(Cl)cc12` [UM_278], the “NanoBRET binding, result in words” value is “did not demonstrate significantly improved binding”; the inhibition at 1 µM was determined as 10.9%; the inhibition at 10 µM was 23.6%.
On to `O=c1[nH]c(CSc2nc3ccccc3o2)nc2ccc(Cl)cc12` [UM_280], for which the negative-log IC50 (pIC50) is 4.83; the “NanoBRET binding, result in words” value is “did not demonstrate significantly improved binding”; the inhibition at 1 µM turned out to be 33.4%; the inhibition at 10 µM turned out to be 74.7%.
Take `Cc1nc2c(sc3nc(N4CCOCC4)c4c(c32)CC(C)(C)OC4)c(=O)o1` [UM_225]: the inhibition at 1 µM stood at 21.7% and the inhibition at 10 µM stood at 47.7%.
For `Cn1c(=O)n(C(N)=O)c(=O)c2c1nc1n2CCCN1c1ccc(F)cc1` [UM_223] the same measures were 17% and 44.6%.
In the case of `CCc1nc(N)nc(SCCCn2c(=O)[nH]c3ccccc32)n1` [UM_276], the inhibition at 1 µM worked out at 10.9% and the inhibition at 10 µM is 37.8%.
On to `Cc1[nH]ccc1C(=O)NC1CCC(N2C(=O)CCC2=O)CC1` (stereo not drawn) [UM_211], for which the inhibition at 1 µM was found to be 0% and the inhibition at 10 µM was found to be 0%.
In the case of `Cc1nc2c3ccccc3nc(SCCCn3c(=O)[nH]c4ccccc43)n2n1` [UM_277], the negative-log IC50 (pIC50) is 4.79, the inhibition at 1 µM came out at 37.1% and the inhibition at 10 µM is 68.6%.
Take `COc1ccc2c(O)c(C(=O)N(C)Cc3c(C)noc3C)cnc2c1` [UM_200]: the inhibition at 1 µM is 0% and the inhibition at 10 µM came out at 17.7%.
For the molecule `COc1cccc(-n2nnc3c(=O)n(CC(=O)N4CCCC4)cnc32)c1` [UM_230], the inhibition at 1 µM turned out to be 21.2% and the inhibition at 10 µM is 55.1%.
For `Cn1cnn(CN2CCN(c3ccc(O)cc3)CC2)c1=S` [UM_199], the inhibition at 1 µM turned out to be 0% and the inhibition at 10 µM is 16.9%.
